# In patent US11219670B2, “Targeting CAPN9/CAPNS2 activity as a therapeutic strategy for the treatment of myofibroblast differentiation and associated pathologies” (The Johns Hopkins University, priority 2014, dated 2022):
# Where a SMILES comes first, the peptide text is derived from it. The star is where a group is joined. Cbz = O=C(OCc1ccccc1)*; Boc = CC(C)(C)OC(=O)*
# T1: Human recombinant mini-CAPN9 (Homo sapiens, UniProt O14815)
# T1 construct: made in house; host or cells: E. coli
# T1 sequence (O14815 42-337 limits assumed): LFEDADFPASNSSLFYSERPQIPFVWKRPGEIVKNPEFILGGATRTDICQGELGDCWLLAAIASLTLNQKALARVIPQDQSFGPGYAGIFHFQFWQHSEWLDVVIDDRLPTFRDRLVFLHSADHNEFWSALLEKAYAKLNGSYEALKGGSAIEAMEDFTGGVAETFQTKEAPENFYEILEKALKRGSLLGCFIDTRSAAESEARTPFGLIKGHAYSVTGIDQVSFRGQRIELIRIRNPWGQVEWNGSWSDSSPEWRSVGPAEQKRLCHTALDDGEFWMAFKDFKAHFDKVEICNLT
# B1: calpastatin: endogenous calpain inhibitor, mouse calpastatin overexpressed from a bicistronic vector with GFP (protein, UniProt P51125 1-788, looked up)
# Calpastatin: MSQPGPKPAASPRPSRGAAARHTQEHVNEKNIGSSSKPGEKKGSDEKKAASLGSSQPSRPHVGEAATATKVTASSAATSKSPSMSTTETKAIPVNKQLEGPDQKRPREQAVKTESKKPQSSEQPVVHEKKSKGGPKEGSEPKNLPKHTSSTGSKHAHKEKALSRSNEQMVSEKPSESKTKFQDVPSAGGESVAGGGTVATALDKVVGKKKEQKPFTPASPVQSTPSKPSDKSGMDAALDDLIDTLGGHEDTNRDDPPYTGPVVLDPMYSTYLEALGIKEGTIPPEYRKLLEKNEGITQPLPDSPKPMGTDQAIDALSSDFTCSSPTGKQSEKEKSTGEIFKAQSAGVTRSSVPPKEKKRKVEEEVINDQALQALSDSLGTRQPDPPSHVSQAEQVKEAKAKEERQEKCGEDEDTVPAEYRLKPAKDKDGKPLLPEPEETSKSLSESELIGELSADFDRSTYQDKPSTPAEKKSNDTSQTPPGETVPRASMCSIRSAPPKLASLKGVVPEDAVETLAGSLGTREADPEHEKTVEDKVKEKAKEEEHEKLGEKEETVPPDYRLEEVKDKDGKPLLPKESQEQLAPLSDDFLLDALSQDFSSPANISSLEFEDAKLSAAISEVVSQTPAPSTHAAAPLPGTEQKDKELDDALDELSDSLGQRPPDPDENKPLDDKVKEKIKPEHSEKLGERDDTIPPEYRHLLDNDGKDKPEKPPTKKTEKPDQDRDPIDALSEDLDSCPSTTETSKNTAKGKSKKTSSSKASKDGEKTKDSSKKTEEVSKPKAKEDARHS
# modifications: co-expressed with GFP
# Assays:
# NMuMG cells [1] = assay: TGFβ1-induced EpMT in NMuMG cells (αSMA western blot, qPCR, immunofluorescence); format: cell-based, Mouse; details: for TGFβ1-induced EpMT as measured by αSMA expression: western blot
# Method: (§1) (FIG. 1B; Levels were normalized to the 72 h TGFβ1 only treated sample for each blot. Students t-test *p<0.05, **p<0.01, † p<0.005, †† p<0.001). […] (FIG. 1H; Levels were normalized to the 72 h TGFβ1 only treated sample for each blot. Students t-test *p<0.05, **p<0.01, † p<0.005, †† p<0.001). FIG. 1G and FIG. 1H show the small molecule […] SB431542 suppressed TGFβ-induced calpain activity (as measured by cleavage of Filamin A, a known calpain substrate) and TGFβ-induced phosphorylation of SMAD2, as measured by western blot (FIG. 1H) and quantified western blot data done in biological replicates (FIG. 1H; Levels were normalized to the 72 h TGFβ1 only treated sample for each blot. Student's t-test *p<0.05, **p<0.01, † p<0.005, †† p<0.001).). […] NMuMG cells pretreated with TGFβ1 for 72 hours to induce EMT, and then treated with calpain inhibitor MDL-28170 while in the continued presence of TGFβ1 for an additional 48 h or 72 h post-induction, can revert to a more epithelial phenotype as assessed by αSMA expression by western blot (FIG. 1I) and quantified western blot data done in biological replicates (FIG. 1J; Levels were normalized to TGFβ1 only treated samples within each time point. Students t-test *p<0.05).
# Calpain inhibition was also found to suppress TGFβ-induced expression of genes commonly and functionally associated with fibrosis, such as collagen 1A1, vimentin and matrix metalloproteinase 2/9 (FIG. 1C). A profound decrease in E-cadherin, a cell surface protein highly expressed by epithelial cells, was observed by immunofluorescence upon stimulation with TGFβ but was prevented by treatment with calpain inhibitor MDL-28170 (FIG. 1D). […] (FIG. 1F). […]
# phosphorylation of SMAD2 = assay: TGFβ-induced phosphorylation of SMAD2 in NMuMG cells (western blot); format: cell-based, Mouse
# Method: (§2) (FIG. 1B; Levels were normalized to the 72 h TGFβ1 only treated sample for each blot. Students t-test *p<0.05, **p<0.01, † p<0.005, †† p<0.001). […] (FIG. 1H; Levels were normalized to the 72 h TGFβ1 only treated sample for each blot. Students t-test *p<0.05, **p<0.01, † p<0.005, †† p<0.001).
# [2] = system: calpain activity (cleavage of Filamin A); assay: TGFβ-induced calpain activity in NMuMG cells (cleavage of Filamin A, western blot); format: cell-based, Mouse
# Method: as §2
# [3] = biological target: T1, Human recombinant mini-CAPN9; assay: Biochemical assay for calpain 9 inhibition (FRET peptide substrate, FLIPR); details: IC50 by 4 parameter logistic fitting; 10 min preincubation; ambient temperature
# Method: Human recombinant mini-CAPN9 was expressed in E. coli and purified as described in Davis, T. L., et al. (2007) J Mol Biol 366(1): 216-229.
# All enzyme reactions are run at ambient temperature (˜25° C.) in black 384 well assay plates. Inhibitors solutions in DMSO are typically semi-log serially diluted prior to further dilution in assay buffer (Tris-HCl 20 mM, KCl 100 mM, BSA 0.1%, 1 mM DTT). Calpain enzyme stocks are diluted in assay buffer without Ca (II) just prior to use (1 μM) and incubated with serially diluted test compounds at 2× concentrations in the assay plate for 10 min.
# After the compound preincubation, the FLIPR liquid handler is used to initiate the reaction by adding a 2× mix of substrate (1 μM Calpain FRET peptide substrate (5-FAM/QXL 520) Anaspec (Catalog# AS-72149)) and Ca (II) (10 mM). Reactions are measured using a FLIPR Tetra reader (Molecular Devices Inc).
# Slopes (reaction rates) are calculated within the 0-2 min interval using the ScreenWorks software (Molecular Devices Inc). Slopes are plotted versus test compound concentration to obtain dose-response curves. IC50 values are obtained using 4 parameter logistic fitting.
# NMuMG cells [4] = assay: Reversal of pre-established TGFβ-induced myofibroblast differentiation in NMuMG cells (mesenchymal-to-epithelial transition); format: cell-based, Mouse; details: NMuMG pretreated with TGFβ 72 h, 48 h and 72 h post-induction
# Method: as §1
# If TGFβ-induced calpain activity is necessary to maintain myofibroblast differentiation, suppression of calpain activity after pre-establishment of myofibroblast differentiation should be sufficient for mesenchymal-to-epithelial transition and provide evidence supporting reversal of a disease state.
# [5] = system: Primary Normal Human Lung Fibroblasts (NHLF); assay: TGFβ1-induced FMT in NHLF cells (αSMA western blot); format: cell-based
# Source text: Resident fibroblasts have also been described to undergo transformation in the presence of high TGFβ. Using Primary Normal Human Lung Fibroblasts (NHLF), it was shown that treatment with calpain inhibitor MDL-28170 (FIG. 8A and FIG. 8B) or siRNA mediated knockdown of CAPNS2 (FIG. 8C) can inhibit TGFβ1-induced FMT as measured by αSMA.
# MDCK cells = assay: TGFβ-induced EpMT in MDCK cells (αSMA western blot); format: cell-based, Canine
# PAVEC = assay: TGFβ1-induced EnMT in PAVEC (qPCR, immunofluorescence); format: cell-based
# Source text: (FIG. 7B; E-cadherin shown in green, vimentin shown in red, DAPI nuclear marker shown in blue. Scale bar=100 μm). […] Scale bar=100 μm);
# Myofibroblasts can derive from cell types other than those of epithelial origin, including endothelial cells and fibroblasts. […] (FIG. 7B). Overexpression of calpastatin inhibits TGFβ1-induced EnMT in PAVEC as measured from gene expression of αSMA, vimentin, E-cadherin, MMP2 and MMP9 (FIG. 7C) and inhibits morphological changes associated with EnMT, such as downregulation of E-cadherin/cell-cell adhesion and upregulation of vimentin. (FIG. 7D).
Molecule,TGFβ1-induced EpMT as measured by αSMA expression (NMuMG cells [1]),TGFβ-induced phosphorylation of SMAD2 (phosphorylation of SMAD2),TGFβ-induced calpain activity (cleavage of Filamin A) [2],IC50 [3] [µM],further results
"NCCOB(c1ccccc1)c1ccccc1 [2-APB, 2-aminoethoxydiphenyl borate]",able to inhibit TGFβ1-induced αSMA expression at high doses,without significantly affecting,suppressed,,
O=C1Nc2ccc([N+](=O)[O-])cc2C1=O [5-Nitroisatin],,,,42.3,
CC(C)[C@H](NC(=O)CNC(=O)OC(C)(C)C)C(=O)N[C@H](C=O)C(C)C [Boc-Gly-Val-Val-CHO] (Boc-Gly-Val-Val-aldehyde),,,,6.68,
CSCC[C@@H](C=O)NC(=O)[C@H](CC(C)C)NC(=O)[C@H](CC(C)C)NC(C)=O [Calpain Inhibitor II (ALLM)] (Ac-Leu-Leu-Met-aldehyde),,,,3.32,
CC(C)C[C@@H](C=O)NC(=O)[C@@H](NS(=O)(=O)c1ccc(F)cc1)C(C)C [Calpain Inhibitor IV SJA-6017],,,,2.23,
CCCC[C@@H](C=O)NC(=O)[C@H](CC(C)C)NC(=O)OCc1ccccc1 [Calpeptin],suppresses,without significantly affecting,suppressed,2.84,
CC(C)CCNC(=O)[C@H](CC(C)C)NC(=O)[C@H]1O[C@@H]1C(=O)O [E-64-C],,,,35.8,
CC(C)C[C@H](NC(=O)[C@H]1O[C@@H]1C(=O)O)C(=O)NCCCCNC(=N)N [E-64],,,,11.6,
"C=CC[C@@H]1/C=C(\C)C[C@H](C)C[C@H](OC)[C@H]2O[C@@](O)(C(=O)C(=O)N3CCCC[C@H]3C(=O)O[C@H](/C(C)=C/[C@@H]3CC[C@@H](O)[C@H](OC)C3)[C@H](C)[C@@H](O)CC1=O)[C@H](C)C[C@@H]2OC [FK506, tacrolimus]",able to potently suppress,,,,
CC(=O)N[C@@H](CC(C)C)C(=O)N[C@@H](CC(C)C)C(=O)N[C@H](C=O)CCCNC(=N)N [Leupeptin Hemisulfate],,,,9.24,
CC(C)[C@H](NC(=O)OCc1ccccc1)C(=O)N[C@H](C=O)Cc1ccccc1 [MDL-28170] (Cbz-Val-Phe-aldehyde),antagonize TGFβ1-induced EpMT,without significantly affecting,suppressed,1.61,"E-cadherin expression after pre-established myofibroblast differentiation (NMuMG cells [4]): reacquired expression of the epithelial marker E-cadherin; actin cytoskeleton organisation after pre-established myofibroblast differentiation (NMuMG cells [4]): reorganized their actin cytoskeleton from stress fibers to cortical actin; αSMA expression after pre-established myofibroblast differentiation (NMuMG cells [4]; continued TGFβ1): decreased expression of αSMA; TGFβ1-induced FMT as measured by αSMA [5]: can inhibit; TGFβ-induced EpMT as measured from αSMA expression (MDCK cells): suppresses TGFβ-induced EpMT in MDCK cells; TGFβ1-induced reorganization of the actin cytoskeleton to stress fibers (NMuMG cells [1]; immunofluorescence): blocked; TGFβ-induced decrease in E-cadherin (NMuMG cells [1]; immunofluorescence): prevented; TGFβ-induced expression of genes associated with myofibroblast differentiation and/or fibrosis (Col1A1, Vimentin, MMP2, MMP9) (NMuMG cells [1]; quantitative PCR): suppresses"
CC(C)C[C@@H](C=O)NC(=O)[C@H](CC(C)C)NC(=O)[C@H](CC(C)C)NC(=O)OCc1ccccc1 [MG-132] (Cbz-Leu-Leu-Leu-aldehyde),,,,9.88,
CCC(C)[C@H](NS(=O)(=O)c1cccc2ccccc12)C(=O)N[C@H](C=O)Cc1c[nH]c2ccccc12 (stereo partly drawn) [NapSul-Ile-Trp-CHO],,,,6.25,
NC(=O)c1ccc(-c2nc(-c3ccc4c(c3)OCO4)c(-c3ccccn3)[nH]2)cc1 [SB431542],did not show,did not show,did not show,,
CC(C)C[C@@H](C=O)NC(=O)[C@H](CC(C)C)NC(=O)OCc1ccccc1 [Z-Leu-Leu-CHO],,,,2.35,
NS8593,able to potently inhibit,without significantly affecting,suppressed,,TGFβ1-induced FMT as measured by αSMA [5]: able to suppress
B1,virtually no αSMA protein,without affecting,suppressed,,"morphological changes associated with EnMT (downregulation of E-cadherin/cell-cell adhesion, upregulation of vimentin) (PAVEC; immunofluorescence): inhibits; TGFβ1-induced EnMT as measured from gene expression of αSMA, vimentin, E-cadherin, MMP2 and MMP9 (PAVEC; quantitative PCR): inhibits"
